Measurements from patent US6369079B1 (Sepracor, Inc., priority 1998, dated 2002).

Tests used:
[1] = cited from earlier work
[2] = co-administration with ketoconazole; cited from earlier work
[3] = target: T1, cloned human serotonin 5-HT1A receptor (Homo sapiens, UniProt P08908); assay: R-SAT 5-HT1A receptor activity (agonist/antagonist); format: cell-based; conditions: antagonist activity against 2 μM 5-HT, NIH 3T3 cells, read-out: Calculated IC50 at 5-HT1A receptor
T1 construct: host or cells: NIH 3T3 cells
T1 sequence (P08908 1-422): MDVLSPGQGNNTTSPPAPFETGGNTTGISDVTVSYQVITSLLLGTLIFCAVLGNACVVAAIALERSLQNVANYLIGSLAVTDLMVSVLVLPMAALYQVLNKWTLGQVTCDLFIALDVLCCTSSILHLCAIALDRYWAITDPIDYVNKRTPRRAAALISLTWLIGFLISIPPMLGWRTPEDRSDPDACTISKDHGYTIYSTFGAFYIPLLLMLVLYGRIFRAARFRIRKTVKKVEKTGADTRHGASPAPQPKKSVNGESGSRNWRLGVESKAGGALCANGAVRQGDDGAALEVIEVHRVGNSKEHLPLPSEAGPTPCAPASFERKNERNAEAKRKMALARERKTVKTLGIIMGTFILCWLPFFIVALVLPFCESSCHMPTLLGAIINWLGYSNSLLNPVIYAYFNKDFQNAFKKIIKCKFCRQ
Procedure: The assay involves co-expression of a marker enzyme, β-galactosidase, with the serotonin receptor of interest. Ligands stimulate proliferation of cells that express the receptor and, therefore, the marker. Ligand-induced effects can be determined by assay of the marker.
NIH 3T3 cells are incubated, plated, and then transfected using human 5-HT1A serotonin receptors, pSV-β-galactosidase, and salmon sperm DNA. The medium is changed one day later, and after 2 days, aliquots of the trypsinized cells are placed in wells of a 96 well plate. After five days in culture in the presence of the ligands, the levels of β-galactosidase are measured. The cells are then rinsed and incubated with the substrate, […] β-D-galactopyranoside.
Data from antagonist inhibition of the compounds are fit to the equation:
Response Max Response +(Min Response)/1+(Ligand Conc/[…])

[4] = target: T2, 5-HT3 receptor subtypes derived from N1E-115 cells (Mus musculus, UniProt P23979); assay: 5-HT3 receptor radioligand binding (Cerep); conditions: IC50 for binding to 5-HT3 sites, inhibition of specific radioligand binding
T2 construct: host or cells: N1E-115 cells
T2 sequence (P23979 24-489): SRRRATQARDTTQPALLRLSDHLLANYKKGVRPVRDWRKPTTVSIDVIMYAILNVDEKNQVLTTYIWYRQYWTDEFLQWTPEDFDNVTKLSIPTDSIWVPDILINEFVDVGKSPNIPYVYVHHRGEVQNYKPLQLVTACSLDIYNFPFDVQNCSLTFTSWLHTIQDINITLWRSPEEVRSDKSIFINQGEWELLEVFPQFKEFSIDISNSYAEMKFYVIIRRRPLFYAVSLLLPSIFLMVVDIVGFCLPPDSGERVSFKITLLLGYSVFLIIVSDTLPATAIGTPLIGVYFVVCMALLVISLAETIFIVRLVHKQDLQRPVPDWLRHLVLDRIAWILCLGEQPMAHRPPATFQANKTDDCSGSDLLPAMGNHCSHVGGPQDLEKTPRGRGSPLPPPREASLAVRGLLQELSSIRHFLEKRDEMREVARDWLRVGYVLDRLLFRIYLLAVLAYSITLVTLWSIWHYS
Procedure: Following incubation with the appropriate ligands, the preparations are rapidly filtered under vacuum through GF/B glass fiber filters and washed with ice-cold buffer using a Brandel or Packard cell harvester.
(§1) Specific radioligand binding to the receptor is defined as the difference between total binding and nonspecific binding determined in the presence of an excess of unlabeled ligand. Results are expressed as a percent inhibition of specific binding obtained in the presence of the compounds.

[5] = target: T3, 5-HT4 receptor subtypes derived from guinea-pig striata (Cavia porcellus, UniProt O70528); assay: 5-HT4 receptor radioligand binding (Cerep); conditions: IC50 for binding to 5-HT4 sites, inhibition of specific radioligand binding
T3 construct: tissue Cerep, Celle l'Evescault, France; host or cells: guinea-pig striata
T3 sequence (O70528 whole entry): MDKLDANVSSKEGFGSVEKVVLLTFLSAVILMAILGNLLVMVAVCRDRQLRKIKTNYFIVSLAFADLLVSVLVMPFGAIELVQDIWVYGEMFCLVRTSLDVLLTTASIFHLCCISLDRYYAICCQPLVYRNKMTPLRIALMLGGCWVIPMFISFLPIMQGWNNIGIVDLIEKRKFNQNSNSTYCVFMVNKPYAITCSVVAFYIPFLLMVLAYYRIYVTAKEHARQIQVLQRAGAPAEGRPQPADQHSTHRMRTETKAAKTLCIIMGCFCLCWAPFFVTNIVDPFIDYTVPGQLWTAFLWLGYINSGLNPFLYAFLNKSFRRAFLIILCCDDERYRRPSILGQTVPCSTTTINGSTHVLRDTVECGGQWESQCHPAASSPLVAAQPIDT
Procedure: Following incubation with the appropriate ligands, the preparations are raidly filtered under vacuum through GF/B glass fiber filters and washed with ice-cold buffer using a Brandel or Packard cell harvester.
as §1

Row | Structure (SMILES) | Absorption after oral administration ([1]; humans) | Fraction of dose metabolized ([1]; humans, mainly oxidative N-dealkylation or aromatic hydroxylation) | Bioavailability ([1]; oral administration to humans, rapid first-pass metabolism in the liver) | Increase of steady-state plasma levels [2] | IC50 [3] | IC50 [4] | IC50 [5]
1 | COc1cc(N)c(Cl)cc1C(=O)NC1CCN(CCCOc2ccc(F)cc2)CC1OC (racemic) [(±) Cisapride, cis-4-amino-5-chloro-N-[1-[3-(4-fluorophenoxy)propyl]-3-methoxy-4-piperidinyl]-2-methoxybenamide] | almost completely absorbed | More than 90% | 40-50% | 8 fold |  |  | 
2 | COc1cc(N)c(Cl)cc1C(=O)NC1CCNCC1OC (racemic) [(±) Norcisapride, 4-amino-5-chloro-N-(3-methoxy-4-piperidinyl)-2-methoxybenzamide] |  |  |  |  | 7480 nM | 8.2 nM | 686 nM
3 | COc1cc(N)c(Cl)cc1C(=O)NC1CCNCC1OC (single isomer, unassigned; (+)) [(+) Norcisapride, 4-amino-5-chloro-N-(3-methoxy-4-piperidinyl)-2-methoxybenzamide] |  |  |  |  | 5.4 nM | 4.5 nM | 331 nM
4 | COc1cc(N)c(Cl)cc1C(=O)NC1CCNCC1OC (single isomer, unassigned; (-)) [(−) Norcisapride, 4-amino-5-chloro-N-(3-methoxy-4-piperidinyl)-2-methoxybenzamide] |  |  |  |  | 1300 nM | 30.4 nM | 1350 nM
